Several values for one entry are separate records, joined by “and”; a condition that tells them apart may be missing. Equal entries are not always repeated. Inconclusive results and toxic doses are left out.

This experiment relates to L1210 leukemia ip in BDF1 mice, survival T/C. Kind of experiment: NCI In Vivo Anticancer Drug Screen. Data for tumor model L1210 Leukemia (intraperitoneal) in B6D2F1 (BDF1) mice. Conditions: higher = longer survival. A digest of the protocol: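 Tumor was transplanted into mice, which were then dosed with test compound or vehicle alone. Survival was recorded for each group, and the treated figure was expressed relative to the control figure.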

[1] abbreviates: endpoint: mean survival time, dose: 50.0 mg/kg/injection, schedule: Q01DX009 (ip), vehicle: Klucel (hydroxypropylcellulose) (HPC).
[2] abbreviates: endpoint: mean survival time, dose: 100.0 mg/kg/injection, schedule: Q01DX009 (ip), vehicle: Klucel (hydroxypropylcellulose) (HPC).
[3] abbreviates: endpoint: mean survival time, dose: 200.0 mg/kg/injection, schedule: Q01DX009 (ip), vehicle: Klucel (hydroxypropylcellulose) (HPC).
Where [4] appears, read: endpoint: mean survival time, dose: 100.0 mg/kg/injection, schedule: Q04DX003 (ip), vehicle: saline with Tween-80.
[5] abbreviates: endpoint: mean survival time, dose: 200.0 mg/kg/injection, schedule: Q04DX003 (ip), vehicle: saline with Tween-80.
[6] abbreviates: endpoint: mean survival time, dose: 100.0 mg/kg/injection, schedule: Q01DX001 (ip), vehicle: Klucel (hydroxypropylcellulose) (HPC).
[7] abbreviates: endpoint: mean survival time, dose: 200.0 mg/kg/injection, schedule: Q01DX001 (ip), vehicle: Klucel (hydroxypropylcellulose) (HPC).
[8] abbreviates: endpoint: mean survival time, dose: 400.0 mg/kg/injection, schedule: Q01DX001 (ip), vehicle: Klucel (hydroxypropylcellulose) (HPC).
Setting [9] is: endpoint: mean survival time, dose: 100.0 mg/kg/injection, schedule: Q04DX002 (ip), vehicle: saline with Tween-80.
Setting [10] is: endpoint: mean survival time, dose: 200.0 mg/kg/injection, schedule: Q04DX002 (ip), vehicle: saline with Tween-80.
Setting [11] is: endpoint: mean survival time, dose: 400.0 mg/kg/injection, schedule: Q04DX002 (ip), vehicle: saline with Tween-80.

On to `CCN(CC)C(=S)S`, for which the T/C (endpoint: mean survival time, dose: 50.0 mg/kg/injection, schedule: Q04DX003 (ip), vehicle: saline) was 101 % of control; the T/C (endpoint: mean survival time, dose: 100.0 mg/kg/injection, schedule: Q01DX001 (ip), vehicle: carboxymethylcellulose (CMC)) is 106 % of control; the T/C (endpoint: mean survival time, dose: 100.0 mg/kg/injection, schedule: Q01DX009 (ip), vehicle: other) is 107 % of control; the T/C (endpoint: mean survival time, dose: 100.0 mg/kg/injection, schedule: Q04DX003 (ip), vehicle: saline) is 103 % of control; the T/C (endpoint: mean survival time, dose: 125.0 mg/kg/injection, schedule: Q01DX010 (ip), vehicle: saline) was 103 % of control and 90 % of control; the T/C (endpoint: mean survival time, dose: 200.0 mg/kg/injection, schedule: Q01DX001 (ip), vehicle: carboxymethylcellulose (CMC)) was 96 % of control. For the same compound, the T/C is 103 % of control (endpoint: mean survival time, dose: 200.0 mg/kg/injection, schedule: Q01DX009 (ip), vehicle: other); 106 % of control (endpoint: mean survival time, dose: 200.0 mg/kg/injection, schedule: Q04DX003 (ip), vehicle: saline); 97 % of control and 87 % of control (endpoint: mean survival time, dose: 250.0 mg/kg/injection, schedule: Q01DX010 (ip), vehicle: saline); 102 % of control (endpoint: mean survival time, dose: 400.0 mg/kg/injection, schedule: Q01DX001 (ip), vehicle: carboxymethylcellulose (CMC)); 102 % of control (endpoint: mean survival time, dose: 400.0 mg/kg/injection, schedule: Q01DX009 (ip), vehicle: other); 103 % of control (endpoint: mean survival time, dose: 400.0 mg/kg/injection, schedule: Q04DX003 (ip), vehicle: saline). Besides, the T/C (endpoint: mean survival time, dose: 500.0 mg/kg/injection, schedule: Q01DX010 (ip), vehicle: saline) is 100 % of control and 91 % of control; the T/C (endpoint: mean survival time, dose: 1000.0 mg/kg/injection, schedule: Q01DX010 (ip), vehicle: saline) was 114 % of control; the T/C (endpoint: median survival time, dose: 500.0 mg/kg/injection, schedule: Q01DX001 (ip), vehicle: saline) is 103 % of control; the T/C (endpoint: median survival time, dose: 1000.0 mg/kg/injection, schedule: Q01DX001 (ip), vehicle: saline) was 108 % of control.
As to `CCc1ccccc1NC(=O)NCc1ccc(C)c(C)c1`, the T/C is, setting by setting: (endpoint: mean survival time, dose: 25.0 mg/kg/injection, schedule: Q01DX009 (ip), vehicle: Klucel (hydroxypropylcellulose) (HPC)) 98 % of control; under setting [1], 93 % of control; under setting [2], 93 % of control; under setting [3], 94 % of control; (endpoint: mean survival time, dose: 400.0 mg/kg/injection, schedule: Q01DX009 (ip), vehicle: Klucel (hydroxypropylcellulose) (HPC)) 98 % of control.
`O=NN(CCF)C(=O)NC1CS(=O)(=O)CS(=O)(=O)C1`: the T/C (endpoint: mean survival time, dose: 6.25 mg/kg/injection, schedule: Q01DX001 (ip), vehicle: other) was 164 % of control; the T/C (endpoint: mean survival time, dose: 12.5 mg/kg/injection, schedule: Q01DX001 (ip), vehicle: other) is 204 % of control; the T/C (endpoint: mean survival time, dose: 25.0 mg/kg/injection, schedule: Q01DX001 (ip), vehicle: other) is 255 % of control; the T/C (endpoint: mean survival time, dose: 50.0 mg/kg/injection, schedule: Q01DX001 (ip), vehicle: other) is 262 % of control; the T/C (endpoint: mean survival time, dose: 75.0 mg/kg/injection, schedule: Q01DX001 (ip), vehicle: other) is 296 % of control; the T/C (endpoint: mean survival time, dose: 100.0 mg/kg/injection, schedule: Q01DX001 (ip), vehicle: other) is 205 % of control.
With `NC(=O)CC1CCCCC1`, the T/C reads like this: (endpoint: mean survival time, dose: 100.0 mg/kg/injection, schedule: Q04DX003 (ip), vehicle: Klucel (hydroxypropylcellulose) (HPC)) 97 % of control; (endpoint: mean survival time, dose: 200.0 mg/kg/injection, schedule: Q04DX003 (ip), vehicle: Klucel (hydroxypropylcellulose) (HPC)) 105 % of control; (endpoint: mean survival time, dose: 400.0 mg/kg/injection, schedule: Q04DX003 (ip), vehicle: Klucel (hydroxypropylcellulose) (HPC)) 103 % of control.
As for `CCOC(=O)C(C#N)c1cccc(C)c1` (stereo not given), the T/C under setting [4] was 95 % of control and the T/C under setting [5] is 98 % of control.
For `C=CCC1CC2(C)C(CCC3C2CCC2(C)C(OC(C)=O)CCC32)CC1=O` (stereo not given), the T/C runs as follows: (endpoint: mean survival time, dose: 10.0 mg/kg/injection, schedule: Q01DX009 (ip), vehicle: gum acacia) 89 % of control; (endpoint: mean survival time, dose: 200.0 mg/kg/injection, schedule: Q01DX009 (ip), vehicle: gum acacia) 88 % of control.
Regarding `CC12CC(C3(O)C(=O)Nc4ccccc43)C(=O)CC1CCC1C2CCC2(C)C(OC(=O)c3ccccc3)CCC12` (stereo not given), the T/C under setting [1] is 93 % of control, the T/C under setting [2] was 101 % of control and the T/C under setting [3] is 101 % of control.
With `COc1ccc(C2=CC(c3ccccc3)C(c3ccccc3)C(=O)N2)cc1` (stereo not given), the T/C (endpoint: mean survival time, dose: 6.25 mg/kg/injection, schedule: Q04DX002 (ip), vehicle: saline with Tween-80) is 100 % of control; the T/C (endpoint: mean survival time, dose: 12.5 mg/kg/injection, schedule: Q04DX002 (ip), vehicle: saline with Tween-80) was 100 % of control; the T/C (endpoint: mean survival time, dose: 25.0 mg/kg/injection, schedule: Q04DX002 (ip), vehicle: saline with Tween-80) is 92 % of control.
Regarding `O=c1[nH]c2ccccc2c(=O)n1C1CCCCC1`, the T/C is, setting by setting: (endpoint: mean survival time, dose: 25.0 mg/kg/injection, schedule: Q01DX009 (ip), vehicle: water) 96 % of control; (endpoint: mean survival time, dose: 50.0 mg/kg/injection, schedule: Q01DX009 (ip), vehicle: water) 94 % of control; (endpoint: mean survival time, dose: 100.0 mg/kg/injection, schedule: Q01DX009 (ip), vehicle: water) 103 % of control; (endpoint: mean survival time, dose: 200.0 mg/kg/injection, schedule: Q01DX009 (ip), vehicle: water) 98 % of control; (endpoint: mean survival time, dose: 400.0 mg/kg/injection, schedule: Q01DX009 (ip), vehicle: water) 101 % of control.
Regarding `CC1(C)CN(C(C)(C)C)CC(C)(C)C(O)C1=O` (stereo not given), the T/C was 96 % of control (endpoint: mean survival time, dose: 100.0 mg/kg/injection, schedule: Q01DX001 (ip), vehicle: saline with Tween-80); 91 % of control (endpoint: mean survival time, dose: 200.0 mg/kg/injection, schedule: Q01DX001 (ip), vehicle: saline with Tween-80); 93 % of control (endpoint: mean survival time, dose: 400.0 mg/kg/injection, schedule: Q01DX001 (ip), vehicle: saline with Tween-80).
On to `CC(C)N(CCNc1nc(C(Cl)(Cl)Cl)nc2cc(Cl)ccc12)C(C)C`, for which the T/C is 93 % of control under setting [4] and 94 % of control under setting [5].
As for `O=C(c1ccccc1)c1ccn[nH]1`, the T/C by setting is: under setting [6], 106 % of control; under setting [7], 103 % of control; under setting [8], 108 % of control.
In the case of `O=[N+]([O-])c1ccc(Oc2cccc(C(F)(F)F)c2)c(Cl)c1`, the T/C reads like this: under setting [6], 94 % of control; under setting [7], 97 % of control; under setting [8], 95 % of control.
For the compound `CC(C1CCCC1)C1CCCC1`, the T/C was 96 % of control under setting [9], 90 % of control under setting [10] and 109 % of control under setting [11].
`CCCC(=O)Nc1ccc([N+](=O)[O-])cc1OC`: the T/C (endpoint: mean survival time, dose: 100.0 mg/kg/injection, schedule: Q01DX009 (ip), vehicle: saline with Tween-80) was 105 % of control; the T/C (endpoint: mean survival time, dose: 200.0 mg/kg/injection, schedule: Q01DX009 (ip), vehicle: saline with Tween-80) is 94 % of control; the T/C (endpoint: mean survival time, dose: 400.0 mg/kg/injection, schedule: Q01DX009 (ip), vehicle: saline with Tween-80) was 94 % of control.
Take `Nc1ccc(S(=O)(=O)NC(=O)NCc2ccccc2)cc1`: the T/C is 101 % of control under setting [4]; 98 % of control under setting [5]; 101 % of control (endpoint: mean survival time, dose: 400.0 mg/kg/injection, schedule: Q04DX003 (ip), vehicle: saline with Tween-80).
With `O=[N+]([O-])c1ccc2c(c1)OCO2`, the T/C runs as follows: (endpoint: mean survival time, dose: 100.0 mg/kg/injection, schedule: Q04DX002 (ip), vehicle: Klucel (hydroxypropylcellulose) (HPC)) 103 % of control; (endpoint: mean survival time, dose: 200.0 mg/kg/injection, schedule: Q04DX002 (ip), vehicle: Klucel (hydroxypropylcellulose) (HPC)) 88 % of control; (endpoint: mean survival time, dose: 400.0 mg/kg/injection, schedule: Q04DX002 (ip), vehicle: Klucel (hydroxypropylcellulose) (HPC)) 94 % of control.
As to `COc1cc2c(c(OC)c1OC)CCNC2`, the T/C is 100 % of control (endpoint: mean survival time, dose: 5.0 mg/kg/injection, schedule: Q01DX001 (ip), vehicle: saline); 100 % of control (endpoint: mean survival time, dose: 10.0 mg/kg/injection, schedule: Q01DX001 (ip), vehicle: saline); 100 % of control (endpoint: mean survival time, dose: 20.0 mg/kg/injection, schedule: Q01DX001 (ip), vehicle: saline); 101 % of control (endpoint: mean survival time, dose: 40.0 mg/kg/injection, schedule: Q01DX001 (ip), vehicle: saline).
As to `CCOC(=O)c1ccc(F)cc1`, the T/C is 101 % of control under setting [9], 115 % of control under setting [10] and 104 % of control under setting [11].

Values taken from PubChem BioAssay AID248 (DTP/NCI, 2004).
